Laboratory results published in US20190046627A1, “USE OF A GNP-LLO91-99 COMPLEX FOR THE TREATMENT AND PREVENTION OF CANCER” (FUNDACIÓN INSTITUTO DE INVESTIGACIÓN MARQUES DE VALDECILLA, priority 2016, published 2019).
Entries after “also recorded” stand apart in the source; their conditions may differ. No end group written: not given here.

Tests used:
ovary tumor cells (CHO) = assay: In vitro activation cell markers, flow cytometry; type: cell-based, hamster; details: 10 μg/ml pre-treatment
Experimental: (§1) 1.—Tumor cells. The cells used are: Hepa1-6, murine hepatocarcinoma, TC-1, murine lung carcinoma; B16F10, murine melanoma; A-375, human melanoma; hamster melanoma (ATCC).
(§2) 3.—Study of in vitro activation cell markers. The markers of the cell surface of the different tumor cells (1×10^6 cells) that are pre-treated or that are not pre-treated with 10 μg/ml of the GNP-LLO91-99 gold nanoparticles similar to the apoptosis process are analyzed by means of flow cytometry using the following antibodies (Miltenyi Biotech): anti-CD86-V450, anti-CD80-FITC, anti-MHC-II-APC, CD11c-PE, anti-NCAM-PE, anti-PD-1-V450.

B16F10, murine melanoma = assay: In vitro activation cell markers, flow cytometry; type: cell-based; details: 10 μg/ml pre-treatment
Experimental: as §1, §2

A-375, human melanoma = assay: In vitro activation cell markers, flow cytometry; type: cell-based; details: 10 μg/ml pre-treatment, A375
Experimental: as §1, §2

murine melanoma B16F10 = assay: Reduction of the size of the tumor, subcutaneous murine melanoma in adult mice (Example 2); type: in vivo; details: adult C57BL/6 mice, s.c. B16F10 established 7 days, 50 μg/ml inoculated in the tumors for 5 days
Experimental: For the study of the reduction of the size of the tumor making use of different therapies and their comparison with that of the invention, 1×10^6 cells of murine melanoma B16F10 were inoculated in a subcutaneous manner in the left ventral flank of 8-12-week old female mice of the C57BL/6 strain.
After 7 days post-inoculation, 50 μg/ml of the following therapies were inoculated in the tumors for 5 days: LLO91-99 (only peptide from listeriolysin O of Listeria monocytogenes, LLO91-99), GNP (empty gluconanoparticles), GNP-LLO91-99 (gluconanoparticles synthesized with the peptide from listeriolysin O of Listeria monocytogenes, LLO91-99), GNP-GAPDH1-22 (nanoparticles synthesized with the peptide from glyceraldehyde-3-phosphate dehydrogenase of Listeria monocytogenes, GAPDH1-22) or no particle (NT). Dendritic cells loaded with the LLO91-99 (1×10^6 DC-LLO91-99) peptide were also included as a control, a vector previously used in therapy.
Following this treatment, the mice were sacrificed and the tumors recovered, measuring their size with a gauge.

murine melanoma B16OVA = assay: Prevention of tumor growth, intraperitoneal melanoma after preventive treatment (Example 5); type: in vivo, mice
Experimental: For the comparative study of the prevention of tumor growth in adults between the therapy of the invention and known anti-tumor therapies, the following therapies (50 μg/ml) were inoculated in female adults of the C57BL/6 strain in an intraperitoneal manner: LLO91-99 (only peptide from listeriolysin O of Listeria monocytogenes, LLO91-99), GNP (empty gluconanoparticles), GNP-LLO91-99 (gluconanoparticles synthesized with the peptide from listeriolysin O of Listeria monocytogenes, LLO91-99), GNP-GAPDH1-22 (nanoparticles synthesized with the peptide from glyceraldehyde-3-phosphate dehydrogenase of Listeria monocytogenes, GAPDH1-22) or saline (NT).
Following 7 days preventative post-treatment, the tumors were established following inoculation with 5×10^6 cells of murine melanoma B16OVA in an intraperitoneal manner. Following 7 days post-established of the tumor, the mice were sacrificed and the recovered tumors were measured by means of a gauge and the tumors were analyzed by means of immunohistochemical staining. The results of the reduction of the tumor growth and their intraperitoneal position are shown in FIG. 4A and FIG. 4B and the results of the analysis of the immunohistochemical staining in FIG. 4C.

glioblastoma (RG-1) [1] = assay: In vitro activation cell markers, flow cytometry; type: cell-based; details: 10 μg/ml pre-treatment
Experimental: as §2

[2] = In vitro apoptosis-necrosis, flow cytometry annexin V-APC / 7-ADD; type: cell-based, hamster; details: 10 μg/ml, 16 hours, CHO
Experimental: as §1
(§3) 2.—In vitro apoptosis-necrosis. The different tumor cells (1×10^6 cells) are treated with 10 μg/ml of the GNP-LLO91-99 gold nanoparticles in culture plates, 16 hours prior to the apoptosis-necrosis analysis, including cells of each type of tumor without treatment with the gold nanoparticles (control). Following washing, the cells are analyzed by means of flow cytometry using two specific products, annexin V conjugated with the APC fluorochrome and the fluorescent marker for binding to DNA, 7-ADD (7-amino-actinomycin D). Apoptosis and necrosis in the tumor cells are analyzed by means of the differential marking with annexin V-APC and 7-ADD expressed as percentages. While the necrosis is indicated as the percentage of cells doubly marked with annexin V-APC and 7-ADD, the apoptosis is expressed as the percentage of cells marked only with annexin V.

glioblastoma (RG-1) [3] = assay: as above; type: cell-based; details: 10 μg/ml, 16 hours
Experimental: as §3

lung cancer cells = assay: Subcutaneous tumor transplant model (Example 9); type: in vivo, mice; details: subcutaneous transplants, C57BL/6, 50 μg/ml in-situ for 7 days
Experimental: as §1
(§4) 4.—Subcutaneous tumor transplant model. 8-12 week old females of the strain C57BL/6 are inoculated in the right flank with 1×10^5 tumor cells for 7 days in order to develop a measurable tumor (4-6 mm thickness). Subsequently, the tumors are inoculated in-situ with 50 μg/ml of the GNP-LLO91-99 gold nanoparticles for 7 days. The size of the tumors is measured with a gauge and is expressed in volume using the following formula: (length×(width)^2)/2.

melanomas = assay: Subcutaneous tumor transplant model (Example 9); type: in vivo, mice; details: subcutaneous transplants, C57BL/6, 50 μg/ml in-situ for 7 days
Experimental: as §1, §4

hepatocarcinomas = assay: Subcutaneous tumor transplant model (Example 9); type: in vivo, mice; details: subcutaneous transplants, C57BL/6, 50 μg/ml in-situ for 7 days
Experimental: as §1, §4

lung cancer cells (TC-1) = assay: In vitro activation cell markers, flow cytometry; type: cell-based, murine; details: 10 μg/ml pre-treatment
Experimental: as §1, §2

[4] = test system: hepatocarcinoma (Hepa 1-6); assay: In vitro activation cell markers, flow cytometry; type: cell-based, murine; details: 10 μg/ml pre-treatment
Experimental: as §1, §2

**Q.** For “GNP-LLO91-99: gluconanoparticles synthesized with the peptide from listeriolysin O of Listeria monocytogenes, LLO91-99 (GYKDGNEYI; also: gold glyconanoparticle conjugate; UniProt P13128 91-99, looked up, fragment)”, which “expression of immune cell activation markers” value (ovary tumor cells (CHO)) is on record?
**A.** The value was “did not undergo a variation in any of the markers analyzed”.

**Q.** What about the “expression of immune cell activation markers” value (B16F10, murine melanoma) of the same substance?
**A.** The value was “boosted the expression of various activation markers such as MHC-I, MHC-II, CD80 and PD-1”.

**Q.** And the “expression of immune cell activation markers” value (A-375, human melanoma)?
**A.** The value was “boosted the expression of various activation markers such as MHC-I, MHC-II, CD80 and PD-1”.

**Q.** What about the “therapeutic effect on the melanoma (in words)” value (murine melanoma B16F10) of the same substance?
**A.** Its value is “does achieve a significant tumor regression”.

**Q.** What about the tumor regression (murine melanoma B16F10) of the same substance?
**A.** Its tumor regression is 90%.

**Q.** And the “prevention of tumor growth” value (murine melanoma B16OVA; 50 μg/ml intraperitoneal 7 days before i.p. B16OVA, adult C57BL/6, tumors measured 7 days after establishment)?
**A.** Its value is 90%.

**Q.** And the “necrotizing foci in the melanomas” value (murine melanoma B16OVA; immunohistochemical staining of recovered peritoneal tumors)?
**A.** Its value is 60%.

**Q.** And the “position of the tumor / spreading to other organs” value (murine melanoma B16OVA; intraperitoneal B16OVA after preventive treatment)?
**A.** The value was “positioned intraperitoneally preventing its spreading to other organs”.

**Q.** And the “expression of MHC-I” value (glioblastoma (RG-1) [1])?
**A.** Its value is “inhibition”.

**Q.** What about the “expression of MHC-II” value (glioblastoma (RG-1) [1]) of the same substance?
**A.** The value was “no variation”.

**Q.** What about the “expression of NCAM-1” value (glioblastoma (RG-1) [1]) of the same substance?
**A.** Its value is “no variation”.

**Q.** And the “expression of immune cell activation markers” value (glioblastoma (RG-1) [1])?
**A.** Its value is “no induction of expression of activation markers”.

**Q.** What about the “induction of tumor apoptosis and necrosis / inhibitory effect” value [2] of the same substance?
**A.** Its value is “do not cause any inhibitory effect”.

**Q.** And the “effect of inducing apoptosis” value (glioblastoma (RG-1) [3])?
**A.** The value was “not as significant”.

**Q.** And the “induction of tumor apoptosis and necrosis” value (glioblastoma (RG-1) [3])?
**A.** Its value is “induce both necrosis and apoptosis with the same percentages; also recorded: induce both tumor apoptosis and necrosis”.

**Q.** And the “in vivo inhibitory effect of the tumor” value (lung cancer cells)?
**A.** The value was “inhibitory effect of the tumor is also observed in vivo”.

**Q.** And the “in vivo inhibitory effect of the tumor” value (melanomas)?
**A.** Its value is “inhibitory effect of the tumor is also observed in vivo”.

**Q.** What about the “in vivo inhibitory effect of the tumor” value (hepatocarcinomas) of the same substance?
**A.** Its value is “inhibitory effect of the tumor is also observed in vivo”.

**Q.** And the “expression of immune cell activation markers” value (lung cancer cells (TC-1))?
**A.** The value was “only boosted the expression of MHC-I”.

**Q.** What about the “expression of immune cell activation markers” value ([4]; Hepa 1-6) of the same substance?
**A.** Its value is “boosted the expression of various activation markers such as MHC-I, MHC-II, CD80 and PD-1”.

**Q.** What about the “expression of PD-1” value ([4]; hepatocarcinomas) of the same substance?
**A.** Its value is “high expression of PD-1”.
